From patent US10519107B2, “Sulfonamide compounds and their use as STAT5 inhibitors” (Governing Council of the University of Toronto, priority 2014, dated 2019)
Entries after “also recorded” stand apart in the source; their conditions may differ.

Tests used:
[1] = system: MCL-1, cleaved PARP-1; assay: Western blotting of apoptosis and MCL-1 in MV-4;11 cells; assay type: cell-based, Human
Description: (§1) Correspondingly, western blot analysis for protein levels of pSTAT5 and downstream target gene expression were also investigated within the AML cell line, MV-4; 11.

[2] = Metabolic stability in pooled mouse liver s9 fractions with NADPH; assay type: in vitro ADME; settings: 60 min
Procedure: (§2) For the pooled s9 fractions, solution of the s9 fraction along with NADPH was added to each well. […] The positive control used in the assay was Verapamil, a known drug to be metabolized by liver enzymes. The reaction was started by the addition of 13a and performed in duplicate. Aliquots were taken from the reaction solution at 0 min and 60 min. The reaction was stopped by the addition of cold methanol. Samples were then analyzed through LC-MS/MS to determine the metabolic profile.

[3] = Metabolic stability in human hepatocytes; assay type: in vitro ADME; settings: 120 min
Procedure: 13a was then evaluated within intact human and mouse hepatocytes. Like the s9 fractions, Verapamil was used as a positive control in the assay. Cryopreserved hepatocytes were thawed and plated to a working cell density of 0.5×10^6 viable cell/mL.

[4] = system: MCL-1, MYC, cleaved PARP-1, Caspase-3; assay: Western blotting of apoptosis markers and STAT5 transcriptional targets in K562 cells
Procedure: Proteins were extracted using RIPA buffer with protease and phosphates inhibitors and a careful protein determination were preformed (BCA protein assay kit, Pierce). […] The membranes were blocked with 5% nonfat milk for at least 1 h followed by an overnight incubation in primary antibody.
(§3) Downstream of STAT5, modulation of the STAT5 transcriptional targets, MCL-1, CYCLIND1/D2 and MYC was assessed.

[5] = system: 120 representative kinases (incl. JAK 1/2, ABL, FLT-3); assay: KINOMEscan (DiscoverX) kinase profiling; assay type: binding; settings: 5 μM, 120 kinases incl. JAK 1/2, ABL, qPCR
Procedure: KINOMEscan kinase profiling was performed as previously described (Fabian et al., 2005; Karaman et al., 2008). For most assays, kinase-tagged T7 phage strains were grown in parallel in 24-well blocks in an E. coli host derived from the BL21 strain. E. coli were grown to log-phase and infected with T7 phage from a frozen stock (multiplicity of infection=0.4) and incubated with shaking at 32° C. until lysis (90-150 minutes). The lysates were centrifuged (6,000×g) and filtered (0.2 μm) to remove cell debris. The remaining kinases were produced in HEK-293 cells and subsequently tagged with DNA for qPCR detection as previously described (Wodicka et al., 2010). […] The liganded beads were blocked with excess biotin and washed with blocking buffer (SeaBlock (Pierce), 1% BSA, 0.05% Tween 20, 1 mM DTT) to remove unbound ligand and to reduce non-specific phage binding. […] All reactions were performed in polypropylene 384-well plates in a final volume of 0.04 ml. […] The kinase concentration in the eluates was measured by qPCR and the data presented as % Ctrl (FIG. 1).

[6] = system: phosphorylated STAT3 (Tyr 705); assay: Western blotting of pSTAT3 in MDA-MB-231 cells; assay type: cell-based
Procedure: Proteins were extracted using RIPA buffer with protease and phosphates inhibitors and a careful protein determination were preformed (BCA protein assay kit, Pierce). In each assay, 30 μg of clarified whole cell extract were resolved on a 10% polyacrylamide-SDS gel and transferred to a nitrocellulose membrane (Bio-Rad). The membranes were blocked with 5% nonfat milk for at least 1 h followed by an overnight incubation in primary antibody.
Immunodetection was performed using antibodies against the total STAT5 (Cell Signaling #9363), phosphorylated STAT5 (Tyr 694) (Cell Signaling, cat. #9359), total STAT3 (Cell Signaling #4904) and phosphorylated STAT3 (Tyr 705) (Cell Signaling #9661), Cleaved Caspase-3 (Asp175) (Cell Signaling #9661), Cleaved-Parp-1 (ab72805) Anti-Cyclin D1 (Abcam ab16663), Anti-Cyclin-D2 (Abcam ab94685), Anti-c-Myc (Abcam ab32072) and β-actin (Cell Signaling #3700) as a loading control, followed by fluorescent conjugated goat secondary antibodies Alexa Fluor 488 (Cell Signaling #4408) and Alexa Fluor 647.
as §3

[7] = target: T1, wildtype STAT1 protein (Homo sapiens, UniProt P42224); assay: Fluorescence polarization competitive binding, STAT1; settings: FP; read-out: IC50, disruption of phosphopeptide-STAT1 complex
T1 sequence (P42224 1-750): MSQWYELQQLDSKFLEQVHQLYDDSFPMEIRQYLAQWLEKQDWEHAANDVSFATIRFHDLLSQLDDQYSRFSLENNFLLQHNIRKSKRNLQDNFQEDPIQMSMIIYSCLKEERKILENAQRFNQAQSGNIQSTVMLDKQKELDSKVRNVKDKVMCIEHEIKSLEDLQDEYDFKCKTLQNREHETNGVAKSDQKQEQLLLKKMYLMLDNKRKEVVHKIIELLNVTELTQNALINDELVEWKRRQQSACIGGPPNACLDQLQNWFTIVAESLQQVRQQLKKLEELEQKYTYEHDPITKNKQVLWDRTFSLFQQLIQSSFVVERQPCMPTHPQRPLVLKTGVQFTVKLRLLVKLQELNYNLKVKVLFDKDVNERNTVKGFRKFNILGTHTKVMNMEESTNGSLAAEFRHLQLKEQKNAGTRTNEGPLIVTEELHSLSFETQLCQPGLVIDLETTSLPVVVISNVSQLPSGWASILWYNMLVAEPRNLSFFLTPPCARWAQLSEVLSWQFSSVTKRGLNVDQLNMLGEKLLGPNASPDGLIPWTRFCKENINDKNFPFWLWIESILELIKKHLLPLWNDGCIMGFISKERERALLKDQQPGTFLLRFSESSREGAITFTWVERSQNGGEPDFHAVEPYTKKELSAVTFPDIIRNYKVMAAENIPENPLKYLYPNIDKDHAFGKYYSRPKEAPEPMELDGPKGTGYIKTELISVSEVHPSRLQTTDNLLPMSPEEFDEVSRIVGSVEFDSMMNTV

[8] = Metabolic stability in pooled human liver s9 fractions with NADPH; assay type: in vitro ADME; settings: 60 min
Procedure: as §2

[9] = HPLC stability with excess glutathione tripeptide; assay type: in vitro ADME; settings: 100 μM compound, 10 mM glutathione, HEPES buffer, 20 h
Description: Considering the structure of 13a, the pentafluorobenzene is the functional moiety that is likely most susceptible to nucleophilic attack from the GST enzyme. Specifically, the para position is highly electron withdrawn enabling for nucleophilic aromatic substitution to take place. […] Data points obtained with the analytical HPLC experiments were fit using ORIGIN software using an exponential decay equation. This equation models for chemical/biological processes whereby a rate in which something happens is proportional to the amount left. Each drug molecule has a certain probability of being metabolized in a small time interval. Thus, as a drug concentration goes down, the rate of its metabolism goes down as well.

[10] = assay type: in vitro ADME; settings: mouse
Description: Within these studies, a series of phase I and phase II metabolites within mouse hepatocytes were identified. […] Each peak from the initial mass spectrum is rerun through a tandem mass spec to identify the major peak along with the corresponding fractionation patterns of that metabolite. […] Peak 2 on the other hand is a combination of both phase I and phase II metabolism. […] Most likely, we deduced the acetylation is occurring at the acid position of the salicylic acid moiety, FIG. 11.
Based on the fragmentation pattern, the most likely site of oxidation could reside on the glycine core or the benzyl ring of the salicylic acid, FIG. 12.

[11] = system: MDA-MB-231 breast cancer cells; assay: Cell viability, MDA-MB-231; assay type: cell-based
Procedure: Breast carcinoma lines MDA-MB-231 and MDA-MB-468 were grown in dulbecco's modified eagles medium (DMEM) supplemented with 10% FBS (sigma). […] As a control, cells were treated with the DMSO alone.

[12] = system: pSTAT5; assay: Western blotting of pSTAT5 in MV-4;11 cells; assay type: cell-based, Human
Description: as §1

Compound: CC(C)(C)c1cc(CN(C(=O)CN(Cc2ccc(Cl)cc2)S(=O)(=O)c2c(F)c(F)c(F)c(F)c2F)c2ccc(C(=O)O)c(O)c2)cc(C(C)(C)C)c1 [Compound 13a, 4-(2-((N-(4-chlorobenzyl)-2,3,4,5,6-pentafluorophenyl)sulfonamido)-N-(3,5-di-tert-butylbenzyl)acetamido)-2-hydroxybenzoic Acid]
- downstream target MCL-1 ([1]; MV-4;11, 10 μM, 24 h): complete knockdown
- apoptosis ([1]; MV-4;11, 24 h): initiation of apoptosis was observed
- recovered in mouse liver s9 (MMLS9) fractions [2]: 6.96%
- recovered in human hepatocytes [3]: 68.56%
- recovered in boiled human hepatocytes (negative control) ([3]; boiled hepatocytes): ~85%
- MYC (c-MYC) expression ([4]; K562, 5 hrs): dose-dependant decreases; also recorded: dose-dependent decreases
- MCL-1 expression ([4]; K562, 24 hrs, 15 μM): complete knockdown
- apoptosis (cleaved PARP-1, Caspase-3) ([4]; K562, 24 hrs, 15 μM): undergo cell death
- effects against the bank of kinases [5]: negligible effects
- pSTAT3 inhibition ([6]; MDA-MB-231, doses corresponding to STAT5 inhibition): not inhibited
- total STAT3 and STAT5 protein levels ([6]; MDA-MB-231 and leukemic cell line): neither total STAT3 or STAT5 protein levels were affected
- IC50 [7]: > 150 µM
- recovered in human liver s9 (HLS9) fractions [8]: 59.82%
- stability to glutathione conjugation [9]: stable to glutathione conjugation
- intact compound recovered ([10]; 240 min): majority of intact 13a is recovered
- glutathione derivatives, collective share of metabolites recovered ([10]; 4 h): 10%
- parent compound recoverable ([10]; 4 h): > 85%
- less cytotoxic in MDA-MB-231 than in high pSTAT5 leukemic cell line [11]: 3 fold
- pSTAT5 level ([12]; MV-4;11, 5 h): dose-dependent decrease
- pSTAT5 phosphorylation ([12]; MV-4;11, 24 h, 10 μM): complete ablation
